Data as given in PMC9138090, “Study on the Neuroprotective, Radical-Scavenging and MAO-B Inhibiting Properties of New Benzimidazole Arylhydrazones as Potential Multi-Target Drugs for the Treatment of Parkinson’s Disease” (Antioxidants, 2022).

Legend:
[1] = MTT cytotoxicity on SH-SY5Y cells; assay type: cell-based, human; settings: human, SH-SY5Y neuroblastoma cells, MTT test, 24 h incubation; read-out: IC50, in vitro cytotoxicity on SH-SY5Y cells
Protocol: (§1) Human neuroblastoma cell line SH-SY5Y was obtained from the European Collection of Cell Cultures (ECACC, Salisbury, UK). The cells were maintained in 75 cm^2 flasks at 37 °C in a humidified atmosphere with 5% CO2 and cultured in RPMI 1640 medium, supplemented with 10% fetal bovine serum and 2 mM L-glutamine.
(§2) MTT (Sigma-Aldrich Chemie GmbH, Schnelldorf, Germany) assay is based on interaction between tetrazolium dye 3-(4,5-dimethylthiazol-2-yl)-2,5-diphenyltetrazolium bromide and succinic dehydrogenase in the living cells’ mitochondria. In this reaction, the formed purple formazan crystals indicate the presence of viable cells. SH-SY5Y cells were seeded in 96-well microplates at a density 2.5 × 10^4 cells/well and allowed to attach to the well surface at 37 °C in a humidified atmosphere with 5% CO2 (24 h). Different concentrations of compounds ([…]) were added to cells and incubated for 24 h. For each concentration, a set of at least 8 wells were used. After the treatment, the solution in each well was substituted with MTT (3-(4,5-dimethylthiazol-2-yl)-2,5-diphenyltetrazolium bromide) solution (0.5 mg/mL in culture medium). The microplates were further incubated for 3 h at 37 °C and the obtained formazan crystals were dissolved by 100 µL/well of DMSO. The absorbance was measured in a multiplate reader Synergy 2 (BioTek Instruments, Inc, Highland Park, Winooski, VT, USA) at 570 nm (690 nm for background absorbance).
(§3) An important step in the development of new pharmacologically active compounds is the establishment of their safety profile. An in vitro toxicity evaluation was carried out on the neuroblastoma cell line SH-SY5Y, which is a well-established model in neuroscience. The neuroblastoma SH-SY5Y are human derived cells with relatively homogeneous neuroblast-like structure. The cells express a dopamine-β-hydroxylase and tyrosine hydroxylase enzyme activity, specific types of human proteins and protein isoforms. The possible neurotoxic effects of the potential drug candidates were measured by cell viability assay (MTT-test). The IC50 values were used as a robust parameter for comparison. The test compounds were dissolved in DMSO and serially diluted in cell culture medium to achieve final concentrations ranging from 1 to 500 µM; the culture medium containing DMSO in the corresponding concentration was used as untreated controls. A concentration dependent effect on cell viability was observed after 24 h incubation.

[2] = Fe(II)-induced oxidative damage of lecithin (TBA-RS); settings: 90 µmol/L; for sample/control absorbance ratio (% of the control), lecithin peroxidation: lecithin 1 mg/mL, FeCl2 0.1 mmol/L
Protocol: The classical method of determining the TBA-reactive substances at 532 nm as described by Asakawa and Matsushita has been used. Two groups of measurement compositions named controls and samples were prepared in phosphate buffer (K2HPO4/KH2PO4, pH 7.4) for each of the used substrates. Both of them contained equivalent concentrations of lecithin (1 mg/mL) or 2-deoxyribose (0.5 mmol/L) and FeCl2 (0.1 mmol/L). In the controls, the tested hydrazones have been omitted and in the samples the effect of the newly designed compounds at the concentrations indicated below the figures has been determined. The obtained samples were incubated at 37 °C for 30 min. The reaction was stopped, and after adding 0.5 mL 2.8% trichloroacetic acid and 0.5 mL of thiobarbituric acid, the samples were heated in boiling water for 20 min. The lecithin containing samples were centrifuged at 3000 rpm for 20 min and the supernatant was aspired out. The results have been presented as a percentage of the control sample, treated only with ferrous iron where we expected maximum oxidative damage under the described conditions.

SH-SY5Y cells = experiment: MTT cytotoxicity on SH-SY5Y cells; assay type: cell-based, human; settings: MTT test, 24 h incubation; read-out: IC50, in vitro cytotoxicity on SH-SY5Y cells
Protocol: as §1, §2, §3

[3] = molecular target: T1, human recombinant MAO-B (hMAO-B) enzyme (Homo sapiens, UniProt P27338); experiment: hMAO-B activity, Amplex UltraRed fluorometric method; assay type: biochemical; settings: 1 µM
T1 construct: purchased Invitrogen, USA
T1 sequence (P27338 1-520): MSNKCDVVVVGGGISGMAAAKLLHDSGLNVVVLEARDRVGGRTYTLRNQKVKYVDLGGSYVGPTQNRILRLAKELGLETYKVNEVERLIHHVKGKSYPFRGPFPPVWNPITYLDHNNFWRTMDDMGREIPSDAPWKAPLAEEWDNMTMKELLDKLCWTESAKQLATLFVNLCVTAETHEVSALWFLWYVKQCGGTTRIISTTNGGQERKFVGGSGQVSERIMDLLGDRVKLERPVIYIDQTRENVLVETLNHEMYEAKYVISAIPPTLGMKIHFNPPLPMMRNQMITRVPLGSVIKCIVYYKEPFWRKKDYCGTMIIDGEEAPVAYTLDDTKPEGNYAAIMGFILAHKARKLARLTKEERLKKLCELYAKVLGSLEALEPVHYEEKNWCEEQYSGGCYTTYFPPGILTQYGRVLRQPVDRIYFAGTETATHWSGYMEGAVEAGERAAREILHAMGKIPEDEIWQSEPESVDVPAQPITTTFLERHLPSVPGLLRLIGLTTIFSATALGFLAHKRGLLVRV
Protocol: The effects of the test compounds on human recombinant MAO-B (hMAO-B) enzyme were studied by the Amplex UltraRed reagent (Sigma-Aldrich Chemie GmbH) fluorometric method with small modifications. The working solutions of the compounds, reagents, hMAO-B, and reaction buffers were prepared according to the producer’s instructions. The tyramine hydrochloride was used as a substrate. The reaction mixture contained a stock solution of Amplex Red (10 mM in dimethyl sulfoxide), the reaction buffer (0.05 M sodium phosphate) at pH 7.4, and the storage solution of horseradish peroxidase (10 U/mL). There were pure MAO-B working solutions in the reaction buffer and MAO-B working solution containing hydrogen peroxide as controls. The final concentration of the test compounds in the well was 1 μM. The compounds together with hMAO-B were embedded in a 96-well plate (8 wells for each compound), and then the plate was incubated for 30 min (dark, at 37 °C). Thereafter, the reaction was initiated by 50 μL Mix Solution: Amplex®Red reagent, horseradish peroxidase, and tyramine as an enzyme substrate in the reaction buffer. The fluorescence was measured every 30 min at 0, 30, 60, 90, 120, and 150 min), in dark, while shaking the reaction mixture at constant temperature of 37 °C. The fluorimetric measurements were assessed using a Synergy 2 Microplate Reader.
Monoamine oxidase B catalyzes dopamine metabolism and oxidation leading to the formation of reactive oxygen species and reactive quinones, which provoke dopamine neurotoxicity and neurodegeneration. In the next experiments, the compounds showing the best safety profile and the most promising neuroprotective activity (3d, 3e, 3h, 3i, 3m, 3n, 3p) were evaluated for their potential inhibitory activity on hMAOB. Selegiline and rasagiline as potent MAO-B inhibitors were used as standard compounds for comparison.

Row | melting point | SMILES | IC50 at 24 h [1] | sample/control absorbance ratio (% of the control), lecithin peroxidation [2] | IC50 (SH-SY5Y cells) | lecithin peroxidation effect compared with 3a (in words) [2] | inhibitory effect on hMAOB activity (in words) [3]
1 | 174 to 176 °C | COc1cc(/C=N/NC(=O)CCn2c(=S)n(CCC(=O)N/N=C/c3cc(O)c(O)c(OC)c3)c3ccccc32)cc(O)c1O [3q, 3,3′-(2-Thioxo-1H-benzo[d]imidazole-1,3(2H)-diyl)bis(N′-(3,4-hydroxy-5-methoxybenzylidene)propanehydrazide)] | 77.7 µM | around 40% | – | – | –
2 | 239 to 241 °C | COc1ccc(C=NNC(=O)CCn2c(=S)n(CCC(=O)NN=Cc3ccc(OC)c(OC)c3)c3ccccc32)cc1OC [3c, 3,3′-(2-Thioxo-1H-benzo[d]imidazole-1,3(2H)-diyl)bis(N′-(3,4 dimethoxybenzylidene)propanehydrazide)] | 112 µM | – | – | statistically identical effect to 3a | –
3 | 255 to 257 °C | COc1ccc(C=NNC(=O)CCn2c(=S)n(CCC(=O)NN=Cc3ccc(OC)c(O)c3)c3ccccc32)cc1O [3o, 3,3′-(2-Thioxo-1H-benzo[d]imidazole-1,3(2H)-diyl)bis(N′-(3-hydroxy-4-methoxybenzylidene)propanehydrazide)] | 73.6 µM | – | – | – | –
4 | 272 to 274 °C | COc1cccc(O)c1C=NNC(=O)CCn1c(=S)n(CCC(=O)NN=Cc2c(O)cccc2OC)c2ccccc21 [3n, 3,3′-(2-Thioxo-1H-benzo[d]imidazole-1,3(2H)-diyl)bis(N′-(2-hydroxy-6-methoxybenzylidene)propanehydrazide)] | > 250 µM | – | 269 µM | – | statistically significant MAO-B inhibitory effects
5 | 284 to 286 °C | COc1cc(C=NNC(=O)CCn2c(=S)n(CCC(=O)NN=Cc3cc(OC)c(O)c(OC)c3)c3ccccc32)cc(OC)c1O [3d, 3,3′-(2-Thioxo-1H-benzo[d]imidazole-1,3(2H)-diyl)bis(N′-(4-hydroxy-3,5-dimethoxybenzylidene)propanehydrazide)] | > 250 µM | around 40% | 268 µM | – | statistically significant MAO-B inhibitory effects
6 | 212 to 214 °C | O=C(CCn1c(=S)n(CCC(=O)NN=Cc2ccc(O)c(O)c2)c2ccccc21)NN=Cc1ccc(O)c(O)c1 [3j, 3,3′-(2-Thioxo-1H-benzo[d]imidazole-1,3(2H)-diyl)bis(N′-(3,4-dihydroxybenzylidene)propanehydrazide)] | 187 µM | around 40% | – | – | –
7 | 229 to 231 °C | COc1cc(C=NNC(=O)CCn2c(=S)n(CCC(=O)NN=Cc3ccc(O)c(OC)c3)c3ccccc32)ccc1O [3b, 3,3′-(2-Thioxo-1H-benzo[d]imidazole-1,3(2H)-diyl)bis(N′-(4-hydroxy-3-methoxybenzylidene)propanehydrazide)] | 101 µM | – | – | – | –

Second part, the compound before the results:

Row | SMILES | melting point | IC50 at 24 h [1] | sample/control absorbance ratio (% of the control), lecithin peroxidation [2] | IC50 (SH-SY5Y cells) | lecithin peroxidation effect compared with 3a (in words) [2] | inhibitory effect on hMAOB activity (in words) [3]
8 | O=C(CCn1c(=S)n(CCC(=O)NN=Cc2cccc(O)c2)c2ccccc21)NN=Cc1cccc(O)c1 [3f, 3,3′-(2-Thioxo-1H-benzo[d]imidazole-1,3(2H)-diyl)bis(N′-(3-hydroxybenzylidene)propanehydrazide)] | 223 to 224 °C | 77.7 µM | – | – | – | –
9 | COc1cccc(C=NNC(=O)CCn2c(=S)n(CCC(=O)NN=Cc3cccc(OC)c3O)c3ccccc32)c1O [3l, 3,3′-(2-Thioxo-1H-benzo[d]imidazole-1,3(2H)-diyl)bis(N′-(2-hydroxy-3-methoxybenzylidene)propanehydrazide)] | 268 to 270 °C | > 200 µM | – | 200 µM | – | –
10 | O=C(CCn1c(=S)n(CCC(=O)NN=Cc2ccc(O)c(O)c2O)c2ccccc21)NN=Cc1ccc(O)c(O)c1O [3k, 3,3′-(2-Thioxo-1H-benzo[d]imidazole-1,3(2H)-diyl)bis(N′-(2,3,4-trihydroxybenzylidene)propanehydrazide)] | 279 to 280 °C | 65.3 µM | – | – | statistically identical effect to 3a | –
11 | COc1cc(O)ccc1C=NNC(=O)CCn1c(=S)n(CCC(=O)NN=Cc2ccc(O)cc2OC)c2ccccc21 [3p, 3,3′-(2-Thioxo-1H-benzo[d]imidazole-1,3(2H)-diyl)bis(N′-(4-hydroxy-2-methoxybenzylidene)propanehydrazide)] | 205 to 207 °C | > 250 µM | – | 254 µM | – | statistically significant MAO-B inhibitory effects
12 | O=C(CCn1c(=S)n(CCC(=O)NN=Cc2ccc(O)cc2)c2ccccc21)NN=Cc1ccc(O)cc1 [3g, 3,3′-(2-Thioxo-1H-benzo[d]imidazole-1,3(2H)-diyl)bis(N′-(4-hydroxybenzylidene)propanehydrazide)] | 281 to 283 °C | 77.8 µM | – | – | – | –
13 | Cc1c(C)c2c(c(C)c1O)CCC(C)(C(=O)O)O2 (centres unmarked) [Trolox, reference compound] | – | – | around 25% | – | – | –
14 | O=c1c(O)c(-c2ccc(O)c(O)c2)oc2cc(O)cc(O)c12 [Quercetin, reference compound] | – | – | around 25% | – | – | –
15 | O=C(CCn1c(=S)n(CCC(=O)N/N=C/c2ccccc2)c2ccccc21)N/N=C/c1ccccc1 [3a] | 246 to 248 °C | 103 µM | 66.52% | – | – | –
